Patent USRE49850E1, “N-(pyridin-2-yl)-4-(thiazol-5-yl)pyrimidin-2-amine derivatives as therapeutic compounds” (AUCENTRA THERAPEUTICS PTY LTD, priority 2015, dated 2024)

Assays:
CDK4D1 = target: T1, CDK4D1 (Homo sapiens, UniProt P11802); assay: Kinase assay CDK4/D1 (radiometric or ADP Glo); type: biochemical; details: apparent Ki calculated from Km (ATP) and IC50; read-out: CDK inhibition Ki CDK4D1
T1 construct: purchased Eurofins Pharma Discovery or Reaction Biology Corporation (service)
Method: (§1) Eurofins Pharma Discovery or Reaction Biology Corporation Kinase Profiler services were used to measure inhibition of CDKs and other kinases by radiometric assay. Inhibition of CDK4/D1, CDK6/D3 and CDK9/T1 were also determined in-house using ADP Glo Kinase assays (Promega Corporation, Madison, USA). Briefly, the kinase reaction for CDK4/D1 and CDK6/D3 was performed with kinase reaction buffer ([…] Tris base pH 7.5, 20 mM MgCl2, 0.4 mM DTT), 0.1 mg/ml BSA and RB-CTF substrate (retinoblastoma protein1 C-terminal fraction). For CDK9/CyclinT1, the kinase reaction was performed with standard assay buffer and Kinase Dilution Buffer and RBER-IRStide substrate. Serial dilutions of 1:3 were prepared for test compounds for 10 concentrations (from 10 μM to 0.5 nM). The kinase reactions were started by addition of ATP, incubated for 40 min at 37° C. and then stopped by adding 10 μL of ADP Glo reagent. After incubation at room temperature in the dark for 40 min, 20 μL of kinase detection reagent was added per well and incubated for 40 min. Luminescence was measured using an EnVision Multilabel plate reader (PerkinElmer, Buckinghamshire, UK). Positive and negative controls were perfonned in the presence and absence of CDK kinases, respectively. Half-maximal inhibition (IC50) values were calculated using a 4-parameter logistic non-linear regression model with Graphpad prism (Version 6.0). Apparent inhibition constants (Ki) values were calculated from Km (ATP) and IC50 values for the respective kinases.

MDA-MB-453 = assay: Cell viability assay (MTT, solid tumour cell line) MDA-MB-453; type: cell-based, human; details: Homo sapiens, MDA-MB-453, 72 h; read-out: Anti-proliferative activity GI50 MDA-MB-453
From the text: (§2) Compounds from Example 1 were subjected to a standard MTT (3-(4,5-dimethylthiazol-2-yl)-2,5-diphenyltetrazolium bromide) and resazurin assays on solid tumour cell lines and leukemia cell lines, respectively, as previously reported (Wang S et al., J Med Chem 47:1662-1675, 2004 and Diab S. et al. CheMedChem 9:962-972, 2014).

MV4-11 = assay: Cell viability assay (resazurin, leukemia cell line) MV4-11; type: cell-based, human; details: Homo sapiens, MV4-11, 72 h; read-out: Anti-proliferative activity GI50 MV4-11
From the text: as §2

CDK1B = CDK1B (Homo sapiens, UniProt P06493); assay: Kinase assay CDK1B (radiometric profiling service); type: biochemical; details: apparent Ki calculated from Km (ATP) and IC50; read-out: CDK inhibition Ki CDK1B
CDK1B, sequence (P06493 whole entry): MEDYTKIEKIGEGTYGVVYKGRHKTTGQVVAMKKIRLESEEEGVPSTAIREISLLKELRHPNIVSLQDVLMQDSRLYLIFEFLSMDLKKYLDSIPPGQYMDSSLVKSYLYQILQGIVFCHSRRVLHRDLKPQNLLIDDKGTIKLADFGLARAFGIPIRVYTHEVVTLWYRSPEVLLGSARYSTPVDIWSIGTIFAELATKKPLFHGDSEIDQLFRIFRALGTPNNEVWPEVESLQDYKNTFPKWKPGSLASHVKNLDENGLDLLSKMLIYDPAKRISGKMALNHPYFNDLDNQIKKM
CDK1B, sequence (P14635 whole entry partner): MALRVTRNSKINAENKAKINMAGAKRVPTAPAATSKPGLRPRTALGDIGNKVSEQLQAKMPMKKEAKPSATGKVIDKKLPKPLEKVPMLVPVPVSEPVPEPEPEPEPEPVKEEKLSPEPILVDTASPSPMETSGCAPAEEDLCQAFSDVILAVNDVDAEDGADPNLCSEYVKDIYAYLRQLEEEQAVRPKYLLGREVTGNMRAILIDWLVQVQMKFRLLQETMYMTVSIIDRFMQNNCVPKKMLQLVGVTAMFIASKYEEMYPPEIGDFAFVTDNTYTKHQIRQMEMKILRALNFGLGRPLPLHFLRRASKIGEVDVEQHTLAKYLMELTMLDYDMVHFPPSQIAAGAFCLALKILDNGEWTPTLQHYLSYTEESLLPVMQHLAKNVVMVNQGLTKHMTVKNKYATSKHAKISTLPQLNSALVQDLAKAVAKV
Method: as §1

CDK 2A = CDK 2A (Homo sapiens, UniProt P24941); assay: Kinase assay CDK2A (radiometric profiling service); type: biochemical; details: apparent Ki calculated from Km (ATP) and IC50; read-out: CDK inhibition Ki CDK 2A
Method: as §1

CDK6D3 = target: T2, CDK6D3 (Homo sapiens, UniProt Q00534); assay: Kinase assay CDK6/D3 (radiometric or ADP Glo); type: biochemical; details: apparent Ki calculated from Km (ATP) and IC50; read-out: CDK inhibition Ki CDK6D3
T2 construct: purchased Eurofins Pharma Discovery or Reaction Biology Corporation (service)
T2 sequence (Q00534 whole entry): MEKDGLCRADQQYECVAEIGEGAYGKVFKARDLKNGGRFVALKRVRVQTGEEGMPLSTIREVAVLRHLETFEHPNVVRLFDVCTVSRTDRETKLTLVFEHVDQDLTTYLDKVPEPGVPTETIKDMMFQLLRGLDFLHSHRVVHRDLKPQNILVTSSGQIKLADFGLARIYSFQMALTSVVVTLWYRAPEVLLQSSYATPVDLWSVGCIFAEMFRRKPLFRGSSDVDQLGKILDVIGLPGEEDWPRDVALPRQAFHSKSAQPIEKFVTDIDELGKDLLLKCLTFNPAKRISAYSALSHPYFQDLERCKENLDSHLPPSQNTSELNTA
T2 sequence (P30281 whole entry partner): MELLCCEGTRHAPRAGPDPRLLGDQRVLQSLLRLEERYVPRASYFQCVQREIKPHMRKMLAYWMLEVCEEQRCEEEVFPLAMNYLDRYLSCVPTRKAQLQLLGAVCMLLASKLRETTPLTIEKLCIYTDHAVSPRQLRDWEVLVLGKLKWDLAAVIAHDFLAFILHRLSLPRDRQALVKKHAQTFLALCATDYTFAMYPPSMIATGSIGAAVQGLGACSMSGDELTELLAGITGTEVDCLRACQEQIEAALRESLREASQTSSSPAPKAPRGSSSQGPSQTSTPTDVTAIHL
Method: as §1

CDK9T1 = target: T3, CDK9T1 (Homo sapiens, UniProt P50750); assay: Kinase assay CDK9/T1 (radiometric or ADP Glo); type: biochemical; details: apparent Ki calculated from Km (ATP) and IC50; read-out: CDK inhibition Ki CDK9T1
T3 construct: purchased Eurofins Pharma Discovery or Reaction Biology Corporation (service)
T3 sequence (P50750 whole entry): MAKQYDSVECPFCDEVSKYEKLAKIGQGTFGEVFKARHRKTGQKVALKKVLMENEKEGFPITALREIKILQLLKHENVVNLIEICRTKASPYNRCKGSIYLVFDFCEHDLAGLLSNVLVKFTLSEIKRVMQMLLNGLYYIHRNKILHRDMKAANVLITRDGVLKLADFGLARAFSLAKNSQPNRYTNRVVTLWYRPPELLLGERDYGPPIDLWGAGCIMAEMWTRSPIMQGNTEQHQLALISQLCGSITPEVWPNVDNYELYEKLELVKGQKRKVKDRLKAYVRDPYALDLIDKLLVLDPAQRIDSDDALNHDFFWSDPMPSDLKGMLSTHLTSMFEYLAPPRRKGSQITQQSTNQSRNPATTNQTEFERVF
T3 sequence (O60563 whole entry partner): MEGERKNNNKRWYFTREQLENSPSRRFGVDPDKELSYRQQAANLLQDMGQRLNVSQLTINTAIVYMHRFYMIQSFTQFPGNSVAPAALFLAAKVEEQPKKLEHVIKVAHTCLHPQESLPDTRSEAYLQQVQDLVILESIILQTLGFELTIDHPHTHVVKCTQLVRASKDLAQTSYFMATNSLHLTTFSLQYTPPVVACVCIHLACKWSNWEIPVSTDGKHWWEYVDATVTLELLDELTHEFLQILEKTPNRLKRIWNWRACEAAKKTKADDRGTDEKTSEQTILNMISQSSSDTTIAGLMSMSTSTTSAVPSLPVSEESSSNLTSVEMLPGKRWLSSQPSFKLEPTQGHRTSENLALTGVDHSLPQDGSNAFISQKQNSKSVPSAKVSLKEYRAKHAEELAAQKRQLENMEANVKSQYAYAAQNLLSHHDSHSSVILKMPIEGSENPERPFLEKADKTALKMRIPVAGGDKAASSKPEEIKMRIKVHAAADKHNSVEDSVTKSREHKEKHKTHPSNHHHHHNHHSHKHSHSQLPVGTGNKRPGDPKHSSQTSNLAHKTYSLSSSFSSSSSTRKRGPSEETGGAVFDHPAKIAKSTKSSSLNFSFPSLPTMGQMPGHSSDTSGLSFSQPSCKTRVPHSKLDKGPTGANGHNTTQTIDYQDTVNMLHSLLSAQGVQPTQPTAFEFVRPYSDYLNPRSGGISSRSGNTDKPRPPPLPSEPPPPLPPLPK
Method: as §1

T1 sequence (P11802 whole entry): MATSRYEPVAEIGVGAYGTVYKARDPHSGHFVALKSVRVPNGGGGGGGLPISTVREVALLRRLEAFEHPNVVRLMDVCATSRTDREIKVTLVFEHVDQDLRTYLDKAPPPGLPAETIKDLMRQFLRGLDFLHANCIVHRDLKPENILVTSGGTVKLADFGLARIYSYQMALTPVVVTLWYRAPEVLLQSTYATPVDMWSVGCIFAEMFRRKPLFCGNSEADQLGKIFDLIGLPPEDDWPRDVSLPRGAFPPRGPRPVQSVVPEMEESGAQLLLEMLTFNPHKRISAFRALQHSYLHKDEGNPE
T1 sequence (P24385 whole entry partner): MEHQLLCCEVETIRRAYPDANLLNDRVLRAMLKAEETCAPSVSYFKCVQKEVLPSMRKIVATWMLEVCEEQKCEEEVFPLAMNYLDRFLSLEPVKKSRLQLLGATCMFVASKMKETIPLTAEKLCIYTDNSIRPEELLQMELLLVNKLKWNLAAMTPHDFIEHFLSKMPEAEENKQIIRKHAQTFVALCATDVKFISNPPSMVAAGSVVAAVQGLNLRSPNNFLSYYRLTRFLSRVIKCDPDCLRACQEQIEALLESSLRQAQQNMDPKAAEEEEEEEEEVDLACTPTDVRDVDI

| Ki (CDK4D1) [µM] | GI50 (MDA-MB-453) [µM] | GI50 (MV4-11) [µM] | Ki (CDK1B) [µM] | Ki (CDK 2A) [µM] | Ki (CDK6D3) [µM] | Ki (CDK9T1) [µM] | SMILES |
| --- | --- | --- | --- | --- | --- | --- | --- |
| > 5 | 0.463 ± 0.075 | 0.606 ± 0.038 | – | – | – | – | CNc1nc(C)c(-c2nc(Nc3ccc(N4CCCCC4)cn3)ncc2F)s1 [Compound 51, 5-(5-fluoro-2-((5-(piperidin-1-yl)pyridin-2-yl)amino)pyrimidin-4-yl)-N,4-dimethylthiazol-2-amine] |
| > 5 | 2.94 ± 0.507 | 2.16 ± 0.431 | – | – | – | – | CNc1nc(C)c(-c2nc(Nc3ccccn3)ncc2F)s1 [Compound 54, 5-(5-fluoro-2-(pyridin-2-ylamino)pyrimidin-4-yl)-N,4-dimethylthiazol-2-amine] |
| 0.005 | 0.031 ± 0.002 | 0.093 ± 0.01 | 3.14 | 0.24 | 0.011 | 2.42 | Cc1nc(NC(C)C)sc1-c1ccnc(Nc2ccc(N3CCNCC3)cn2)n1 [Compound 55, N-isopropyl-4-methyl-5-(2-((5-(piperazin-1-yl)pyridin-2-yl)amino)pyrimidin-4-yl)thiazol-2-amine] |
| 0.003 | 0.618 ± 0.193 | 0.075 ± 0.005 | 3.81 | 0.399 | 0.015 | 0.773 | Cc1nc(NC(C)C)sc1-c1ccnc(Nc2ccc(N3CCN(C)CC3)cn2)n1 [Compound 56, N-isopropyl-4-methyl-5-(2-((5-(4-methylpiperazin-1-yl)pyridin-2-yl)amino)pyrimidin-4-yl)thiazol-2-amine] |
| 0.021 | 0.344 ± 0.126 | 2.07 ± 0.321 | 2.69 | 0.2 | 0.105 | 3.72 | CC(=O)N1CCN(c2ccc(Nc3nccc(-c4sc(NC(C)C)nc4C)n3)nc2)CC1 [Compound 57, 1-(4-(6-((4-(2-(isopropylamino)-4-methylthiazol-5-yl)pyrimidin-2-yl)amino)pyridin-3-yl)piperazin-1-yl)ethan-1-one] |
| 0.016 | 0.938 ± 0.068 | 0.255 ± 0.085 | > 5 | 0.8 | 0.028 | 0.925 | Cc1nc(NC(C)C)sc1-c1ccnc(Nc2ccc(N3CCCNCC3)cn2)n1 [Compound 59, 5-(2-((5-(1,4-diazepan-1-yl)pyridin-2-yl)amino)pyrimidin-4-yl)-N-isopropyl-4-methylthiazol-2-amine] |
| 0.003 | 0.78 ± 0.598 | 0.053 ± 0.004 | 2.24 | 0.256 | 0.007 | 0.787 | Cc1nc(NC2CCCC2)sc1-c1nc(Nc2ccc(N3CCNCC3)cn2)ncc1F [Compound 61, N-cyclopentyl-5-(5-fluoro-2-((5-(piperazin-1-yl)pyridin-2-yl)amino)pyrimidin-4-yl)-4-methylthiazol-2-amine] |
| 0.008 | 0.081 ± 0.039 | 0.002 ± 0.001 | 0.22 | 0.022 | 0.002 | 0.258 | FC(F)(F)c1nc(NC2CCCC2)sc1-c1ccnc(Nc2ccc(N3CCNCC3)cn2)n1 [Compound 62, N-cyclopentyl-5-(2-((5-(piperazin-1-yl)pyridin-2-yl)amino)pyrimidin-4-yl)-4-(trifluoromethyl)thiazol-2-amine] |
| 0.002 | 0.13 ± 0.011 | 0.009 | 2.68 | 0.206 | 0.009 | 0.18 | Cc1nc(NC2CCCC2)sc1-c1ccnc(Nc2ccc(N3CCN(C)CC3)cn2)n1 [Compound 63, N-cyclopentyl-4-methyl-5-(2-((5-(4-methylpiperazin-1-yl)pyridin-2-yl)amino)pyrimidin-4-yl)thiazol-2-amine] |
| 0.001 | 0.42 ± 0.12 | 0.001 ± 0.001 | 0.241 | 0.022 | 0.003 | 0.831 | CN1CCN(c2ccc(Nc3nccc(-c4sc(NC5CCCC5)nc4C(F)(F)F)n3)nc2)CC1 [Compound 65, N-cyclopentyl-5-(2-((5-(4-methylpiperazin-1-yl)pyridin-2-yl)amino)pyrimidin-4-yl)-4-(trifluoromethyl)thiazol-2-amine] |
| 0.002 | 0.066 ± 0.019 | 0.013 ± 0.002 | > 5 | 0.349 | 0.006 | > 5 | CCN1CCN(c2ccc(Nc3ncc(F)c(-c4sc(NC5CCCC5)nc4C)n3)nc2)CC1 [Compound 67, N-cyclopentyl-5-(2-((5-(4-ethylpiperazin-1-yl)pyridin-2-yl)amino)-5-fluoropyrimidin-4-yl)-4-methylthiazol-2-amine] |
| 0.006 | 0.591 ± 0.256 | 0.024 ± 0.028 | 3.25 | 0.776 | 0.093 | 0.286 | CC(=O)N1CCN(c2ccc(Nc3nccc(-c4sc(NC5CCCC5)nc4C)n3)nc2)CC1 [Compound 68, 1-(4-(6-((4-(2-(Cyclopentylamino)-4-methylthiazol-5-yl)pyrimidin-2-yl)amino)pyridin-3-yl)piperazin-1-yl) ethan-1-one] |
| 0.004 | 0.077 ± 0.001 | 0.012 ± 0.001 | 0.297 | 0.014 | 0.006 | > 5 | CC(=O)N1CCN(c2ccc(Nc3nccc(-c4sc(NC5CCCC5)nc4C(F)(F)F)n3)nc2)CC1 [Compound 70, 1-(4-(6-((4-(2-(cyclopentylamino)-4-(trifluoromethyl)thiazol-5-yl)pyrimidin-2-yl)amino)pyridin-3-yl)piperazin-1-yl)ethan-1-one] |
| 0.003 | 0.055 ± 0.012 | 0.022 ± 0.002 | 1.23 | 0.181 | 0.133 | 0.173 | Cc1nc(NC2CCCC2)sc1-c1ccnc(Nc2ccc(N3CCC(N)CC3)cn2)n1 [Compound 74, 5-(2-((5-(4-aminopiperidin-1-yl)pyridin-2-yl)amino)pyrimidin-4-yl)-N-cyclopentyl-4-methylthiazol-2-amine] |
| 0.001 | 0.102 ± 0.117 | 0.029 ± 0.002 | 4.07 | 0.278 | 0.008 | 0.508 | Cc1nc(NC2CCCC2)sc1-c1ccnc(Nc2ccc(N3CCCNCC3)cn2)n1 [Compound 76, 5-(2-((5-(1,4-diazepan-1-yl)pyridin-2-yl)amino)pyrimidin-4-yl)-N-cyclopentyl-4-methylthiazol-2-amine] |
| – | 0.215 ± 0.052 | 0.176 ± 0.009 | – | – | – | – | Cc1nc(NC2CCCC2)sc1-c1ccnc(Nc2ccc(N3CCN(S(C)(=O)=O)CC3)cn2)n1 [Compound 77] |
| 0.57 | 4.38 ± 0.691 | 0.3 ± 0.035 | – | – | – | > 5 | Cc1nc(NC2CCCC2)sc1-c1ccnc(Nc2ccccn2)n1 [Compound 78, N-cyclopentyl-4-methyl-5-(2-(pyridin-2-ylamino)pyrimidin-4-yl)thiazol-2-amine] |
| 0.011 | 0.336 ± 0.188 | 0.004 ± 0.001 | 0.345 | 0.015 | 0.007 | > 5 | O=CN1CCN(c2ccc(Nc3nccc(-c4sc(NC5CCCC5)nc4C(F)(F)F)n3)nc2)CC1 [Compound 79, 4-(6-((4-(2-(cyclopentylamino)-4-(trifluoromethyl)thiazol-5-yl)pyrimidin-2-yl)amino)pyridin-3-yl)piperazine-1-carbaldehyde] |
| 0.014 | 0.083 ± 0.009 | 0.029 ± 0.002 | > 5 | 0.417 | 0.01 | 0.679 | Cc1nc(NC2CCCC2)sc1-c1nc(Nc2ccc(N3CCCNCC3)cn2)ncc1F [Compound 81, 5-(2-((5-(1,4-diazepan-1-yl)pyridin-2-yl)amino)-5-fluoropyrimidin-4-yl)-N-cyclopentyl-4-methylthiazol-2-amine] |
| – | 0.004 ± 0.002 | 0.019 ± 0.003 | > 5 | – | – | 1.98 | CCN1CCN(Cc2ccc(Nc3nccc(-c4sc(NC5CCCC5)nc4C)n3)nc2)CC1 [Compound 83, N-cyclopentyl-5-(2-((5-((4-ethylpiperazin-1-yl)methyl)pyridin-2-yl)amino)pyrimidin-4-yl)-4-methylthiazol-2-amine] |
